Legend:
[1] = Cytotoxicity against alphavbeta3-expressing human U-87 MG cells assessed as reduction in cell viability measured after 96 hrs by MTT assay; format: toxicity, cell-based; settings: u-87mg atcc
[2] = tested on: SK-MEL-2; assay: Cytotoxicity against alphavbeta3-expressing human SK-MEL-2 cells assessed as reduction in cell viability measured after 96 hrs by MTT assay; format: toxicity, cell-based; settings: sk-mel-2, 96 h
[3] = molecular target: T1, Integrin alpha-V/beta-3 (Homo sapiens) (UniProt P05106+P06756); assay: Antagonist activity at alphavbeta3 integrin-mediated human SK-MEL-2 cell adhesion to fibronectin at 50 uM incubated with cells for 4 hrs followed by incubation with fibronectin in humidified chamber for 1 hr followed by incubation for overnight at 37 degC by MTT assay; format: cell-based
[4] = Toxicity in C57BL/6 immunocompetent mouse assessed as body weight upto 300 mg/kg, ip administered daily for 4 days; format: organism-based; settings: in vivo, 96 h, time 4 day
[5] = molecular target: T1, Integrin alpha-V/beta-3 (Homo sapiens); assay: Antagonist activity at alphavbeta3 integrin-mediated human SK-MEL-2 cell adhesion to fibronectin at 5 uM incubated with cells for 4 hrs followed by incubation with fibronectin in humidified chamber for 1 hr followed by incubation for overnight at 37 degC by MTT assay; format: cell-based; settings: filed as antagonist

inhibition [5] [%] | Structure (SMILES) | Activity [1] | Activity [2] | inhibition [3] | Activity [4]
 | O=C1C[C@H](NS(=O)(=O)c2ccccc2)C(=O)N1[C@H]1C[C@@H](CCc2ccc3c(n2)NCCC3)C1 | Toxic | Toxic |  | 
 | COC(=O)[C@H](CC(=O)N[C@H]1C[C@@H](CCc2ccc3c(n2)NCCC3)C1)NS(=O)(=O)c1c(C)cc(C)cc1C | Toxic | Toxic |  | 
 | CC(C)(C)OC(=O)C[C@H](NS(=O)(=O)c1ccccc1)C(=O)N[C@H]1C[C@@H](CCc2ccc3cccnc3n2)C1 |  | Toxic | Not determined; Greater Than 75% Inhibition In Initial Trial Experiment, Not Tested Further At This Concentration | 
 | COC(=O)[C@H](CCNC(=O)[C@H]1C[C@@H](Cc2ccc3cccnc3n2)C1)NS(=O)(=O)c1ccccc1 | Toxic | Toxic |  | 
 | COC(=O)[C@H](CC(=O)N[C@H]1C[C@@H](CCc2ccc3c(n2)NCCC3)C1)NS(=O)(=O)c1ccccc1 | Toxic | Toxic |  | 
 | COC(=O)[C@H](CCNC(=O)[C@H]1C[C@@H](Cc2ccc3cccnc3n2)C1)NS(=O)(=O)c1c(C)cc(C)cc1C | Toxic |  |  | 
 | CNc1cccc(CC[C@H]2C[C@@H](C(=O)NC[C@H](NS(=O)(=O)c3ccccc3)C(=O)OC)C2)n1 | Toxic | Toxic | Not determined; Greater Than 75% Inhibition In Initial Trial Experiment, Not Tested Further At This Concentration | 
 | CC(C)(C)OC(=O)C[C@H](NS(=O)(=O)c1ccccc1)C(=O)N[C@H]1C[C@@H](CCc2ccc3c(n2)NCCC3)C1 |  | Toxic |  | 
 | COC(=O)[C@H](CCNC(=O)[C@H]1C[C@@H](Cc2ccc3c(n2)NCCC3)C1)NS(=O)(=O)c1c(C)cc(C)cc1C | Toxic | Toxic | Not determined; Greater Than 75% Inhibition In Initial Trial Experiment, Not Tested Further At This Concentration | 
 | O=C(O)C[C@H](NS(=O)(=O)c1ccccc1)C(=O)N[C@H]1C[C@@H](CCc2ccc3c(n2)NCCC3)C1 |  | Toxic | Not determined; Greater Than 75% Inhibition In Initial Trial Experiment, Not Tested Further At This Concentration | 
 | CNc1cccc(CC[C@H]2C[C@@H](C(=O)NC[C@H](NS(=O)(=O)c3c(C)cc(C)cc3C)C(=O)OC)C2)n1 | Toxic | Toxic |  | Non-toxic
 | COC(=O)[C@H](CCNC(=O)[C@H]1C[C@@H](Cc2ccc3c(n2)NCCC3)C1)NS(=O)(=O)c1ccccc1 | Toxic | Toxic | Not determined; Greater Than 75% Inhibition In Initial Trial Experiment, Not Tested Further At This Concentration | 
 | COC(=O)[C@H](CCNC(=O)[C@H]1C[C@@H](CCc2ccc3cccnc3n2)C1)NS(=O)(=O)c1ccccc1 |  | Toxic | Not determined; Greater Than 75% Inhibition In Initial Trial Experiment, Not Tested Further At This Concentration | 
 | O=C1C[C@H](NS(=O)(=O)c2ccccc2)C(=O)N1[C@H]1C[C@@H](CCc2ccc3cccnc3n2)C1 | Toxic | Toxic |  | 
 | Cc1cc(C)c(S(=O)(=O)N[C@H]2CC(=O)N([C@H]3C[C@@H](CCc4ccc5cccnc5n4)C3)C2=O)c(C)c1 |  | Toxic |  | 
 | COC(=O)[C@H](CC(=O)N[C@H]1C[C@@H](CCc2ccc3cccnc3n2)C1)NS(=O)(=O)c1ccccc1 | Toxic | Toxic |  | 
 | Cc1cc(C)c(S(=O)(=O)N[C@H]2CC(=O)N([C@H]3C[C@@H](CCc4ccc5c(n4)NCCC5)C3)C2=O)c(C)c1 |  | Toxic |  | 
59.5 | COC(=O)[C@H](CNC(=O)[C@H]1C[C@@H](CCc2ccc3c(n2)NCCC3)C1)NS(=O)(=O)c1ccccc1 |  |  |  | 
 | COC(=O)[C@H](CC(=O)N[C@H]1C[C@@H](CCc2ccc3cccnc3n2)C1)NS(=O)(=O)c1c(C)cc(C)cc1C | Toxic | Toxic |  | 
 | COC(=O)[C@H](CCNC(=O)[C@H]1C[C@@H](CCc2ccc3c(n2)NCCC3)C1)NS(=O)(=O)c1c(C)cc(C)cc1C | Toxic | Toxic | Not determined; Greater Than 75% Inhibition In Initial Trial Experiment, Not Tested Further At This Concentration | 
 | COC(=O)[C@H](CCNC(=O)[C@H]1C[C@@H](CCc2ccc3cccnc3n2)C1)NS(=O)(=O)c1c(C)cc(C)cc1C | Toxic | Toxic | Not determined; Greater Than 75% Inhibition In Initial Trial Experiment, Not Tested Further At This Concentration | 
 | O=C(O)C[C@H](NS(=O)(=O)c1ccccc1)C(=O)N[C@H]1C[C@@H](CCc2ccc3cccnc3n2)C1 |  | Toxic |  | 
 | COC(=O)[C@H](CCNC(=O)[C@H]1C[C@@H](CCc2ccc3c(n2)NCCC3)C1)NS(=O)(=O)c1ccccc1 |  | Toxic | Not determined; Greater Than 75% Inhibition In Initial Trial Experiment, Not Tested Further At This Concentration | 

From ChEMBL document CHEMBL6074637, “Sidechain structure-activity relationships of cyclobutane-based small molecule αvβ3 antagonists” (RSC Med Chem, 2024)
